Laboratory results: patent US20220054494A1, “METHODS FOR TREATING BLADDER AND URETHRA DYSFUNCTION AND DISEASE” (University of Pittsburgh - Of the Commonwealth System of …, priority 2019, published 2022)
Entries after “also recorded” stand apart in the source; their conditions may differ.

Tests used:
bladder smooth muscle = test: Transmission electron microscopy of bladder smooth muscle; assay type: in vivo, rat
From the text: Transmission electron microscopy (TEM): The other half of each urinary bladder from each group (young, aged, and aged+treatment) were fixed in cold 2.5% glutaraldehyde in 0.01 M PBS. The specimens were rinsed in PBS, post-fixed in 1% osmium tetroxide with 1% potassium ferricyanide, rinsed in PBS, dehydrated through a graded series of ethanol and propylene oxide, and embedded in POLY/BED® 812 (Luft formulations). Semi-thin (300 nm) sections were cut on a LEICA® Reichart Ultracut, stained with 0.5% toluidine blue in 1% sodium borate and examined under the light microscope. Ultrathin sections (65 nm) were stained with uranyl acetate and Reynold's lead citrate and examined on JEOL 1400 transmission electron microscope with a side mount AMT 2k digital camera (Advanced Microscopy Techniques, Danvers, Mass.).
(§1) Transmission electron microscopy (TEM): The other half of each urinary bladder, proximal urethra, or external urethral sphincter from each group (young, aged, aged+8-AG treatment) was fixed in cold 2.5% glutaraldehyde in 0.01 M PBS. The specimens were rinsed in PBS, post-fixed in 1% osmium tetroxide with 1% potassium ferricyanide, rinsed in PBS, dehydrated through a graded series of ethanol and propylene oxide solutions, and embedded in POLY/BED® 812 (Luft formulations). Semi-thin (300 nm) sections were cut on a LEICA® Reichart Ultracut, stained with 0.5% Toluidine Blue in 1% sodium borate and examined under the light microscope. Ultrathin sections (65 nm) were stained with uranyl acetate as well as Reynold's lead citrate and examined on a JEOL 1400 transmission electron microscope with a side mount AMT 2k digital camera (Advanced Microscopy Techniques, Danvers, Mass.).
as §1, with “Half” for “The other half”, “bladder” for “bladder, proximal urethra, or external urethral sphincter”, “borate,” for “borate”, “and” for “as well as”

CYP-treated rats = test: Abdominal mechanical pain threshold (Von Frey) in CYP cystitis model; assay type: in vivo, rat; conditions: CYP (75 mg/kg i.p.) female Sprague Dawley rats; oral 8-AG 5 mg/kg for 1 week prior to CYP
Experimental: Animals: Female Sprague Dawley rats were employed in this example (Charles River; Wilmington, Mass.). Three groups of animals were included. Group 1 received an i.p. injection of saline and was used as a control; groups 2 and 3 received an i.p. injection of cyclophosphamide (CYP, SIGMA-ALDRICH®, St Louis, Mo., day 0, 3, 6, sacrifice day 8, 75 mg/kg, i.p.) with group 3 treated with oral 8-AG (5 mg/kg/day; starting one week prior to CYP). CYP induced bladder inflammation and is a well-established pre-clinical model for BPS/IC.
Determination of mechanical pain threshold: Lower abdominal pain was evaluated using a mechanical hyperalgesia and allodynia test (Larid et al., Pain, 92:335-342, 2001; Minnet et al., PLoS One, 9:e104458, 2014). Briefly, animals were placed in individual chambers with a wire mesh floor and allowed to acclimate. This Von Frey test was performed in the lower abdomen and consists of delivering a constant pre-determined force with one of a series of Von Frey monofilaments (from 0.08 to 19.6 mN; Stoelting Co., Wood Dale, Ill., USA). Filaments were applied perpendicularly with enough strength to cause the monofilament to slightly bend. Each monofilament was tested five times, 5 s interval between each application. […]

[1] = test system: deoxycorticosterone/salt-induced hypertension; conditions: chronic oral treatment of rats; Jackson et al. 2016; cited from earlier work
[2] = Jackson et al., J Pharmacol Exp Ther 2016; cited from earlier work
[3] = aged Fisher 344 rats, 8-AG 5 mg kg/day via drinking water, 1 month
[4] = aged rats, oral 8-AG 5 mg/kg/day, 6 weeks

In the case of `Nc1nc2[nH]c(N)nc2c(=O)[nH]1` [8-AG, 8-Aminoguanine], the “detrusor smooth muscle morphology (separation and degeneration of cells)” value (bladder smooth muscle; [3]) is reported as “restored to a younger state; also recorded: restored to levels similar to the younger state”, the “swelling and disruption of smooth muscle mitochondria” value (bladder smooth muscle; [3]) is reported as “restored to a younger state; also recorded: restored to levels similar to the younger state” and the “bladder smooth muscle mitochondrial abnormalities” value (bladder smooth muscle; aged rats, intravesical 100 μM 8-AG plus 10 μM DEA-NONOate, daily infusion 3-6 weeks) is reported as “normalized; also recorded: restored”. The “detrusor smooth muscle morphology (structural anomalies)” value (bladder smooth muscle; [4]) was “reversed; also recorded: restored to a younger state”, the “swelling and disruption of smooth muscle mitochondria” value (bladder smooth muscle; [4]) was “reversed; also recorded: restored to a younger state” and the “abdominal mechanical pain threshold” value (CYP-treated rats) was “returned to near control levels”. For the same compound, the “development of deoxycorticosterone/salt-induced hypertension” value [1] was “attenuate”, the diuresis [2] was “induce” and the glucosuria [2] was “induce”. The natriuresis [2] was “induce” and the potassium excretion [2] was “reduce”.
